# Test results published in US11725036B2, “Modified lipidated relaxin B chain peptides and their therapeutic use” (Sanofi, priority 2018, dated 2023).
# Like-named read-outs stand apart in the source and are kept apart here. Marks after values point to notes of the source that are not given here. Starred links: 1 amine or outer side, 2 acyl side, 3 side chain; linkers in the order of their positions; H or OH if unused. Non-standard residues stand in square brackets, D forms with d. Residues, ends and D or L forms follow the SMILES beside them. Groups on a side chain read outwards from the residue. *: point of attachment. X1 = CCCCCCCCCCCCCCCC(=O)N[C@@H](CCC(=O)N[C@@H](CCC(=O)N[C@@H](CCC(=O)NCCCOCCOCCOCCCNC(=O)CCC(=O)NCCCOCCOCCOCCCNC(=O)CCC(=O)NCCCOCCOCCOCCCN*)C(=O)O)C(=O)O)C(=O)O; X2 = CCCCCCCCCCCCCCCC(=O)N[C@@H](CCC(=O)N[C@@H](CCC(=O)N[C@@H](CCC(=O)NCCCOCCOCCOCCCNC(=O)CCC(=O)NCCCOCCOCCOCCCN*)C(=O)O)C(=O)O)C(=O)O; Suc = O=C(CCC(=O)[*:2])[*:1]; αMeK = C[C@](N)(CCCCN)C(=O)O; Aib = CC(C)(N)C(=O)O
# What was measured:
# [1] = Solubility testing in buffer; type: physicochemical; settings: target solubility 10.0 mg/ml
# [2] = Stability in human plasma; type: in vitro ADME; settings: for Human Plasma stability % remaining: T = 0, 37° C., 5 μM; for remaining at 1 h, 5 μM / remaining at 4 h, 5 μM: human, plasma (sodium or lithium heparin), 37° C.
# Protocol: (§1) Prior to the testing of stability in plasma (or blood) of a peptide batch, its purity (HPLC-UV) was determined.
# Rat and Human plasma: anti-coagulant sodium or lithium heparin.
# (§2) 100 μM solution of study compound in 50 mM phosphate buffer pH 7.4.
# (§3) 950 μL plasma (or blood) was pre-incubated for 5 min at 37° C. 50 μL of compound stock solution was added. Final compound concentration=5 μM. Vortex and transfer 150 μL plasma (or blood) into an Eppendorf for each time point. The time points […] were carried out in duplicate for each species.
# (§4) After incubation, 150 μL plasma (or blood) was extracted with 600 μL Acetonitrile containing 1% TFA. Said mixture was then vortexed and centrifuged 10 min at 14600 rpm. 200 μL supernatant was dried under N2. Sample was then reconstituted in 200 μL of H2O/CH3CN 98/2+0.1% FA+50 ng/ml Labetalol and analyzed using the analytical system used in solubility and stability studies.
# (§5) For determination of the amount of the remaining peptide, the peak areas of the target compound at t0 and each time point […] were compared, resulting in “% remaining peptide”, following the equation: % remaining peptide=[(peak area peptide time)×100]/peak area peptide t0. The stability was expressed as “% remaining peptide”.
# [3] = Stability in rat blood; type: in vitro ADME; settings: for Rat blood stability % remaining: T = 0, 37° C., 5 μM; for remaining at 1 h, 5 μM / remaining at 4 h, 5 μM: rat, whole blood (sodium or lithium heparin), 37° C.
# Protocol: as §1
# Rat and Human blood: anti-coagulant sodium or lithium heparin.
# as §2, §3, §4, §5
# [4] = in vivo; set-up: species or system Sprague Dawley rats; settings: Sprague Dawley, rat; for bioavailability / Cmax / Tmax: sc; for Cmax / Tmax: 3 mg/kg
# Protocol: Prior to the testing of a peptide batch, its purity (HPLC-UV) was determined. Dose was corrected for presence of salts, solvent and purity. Bioanalytical screening method for quantification of peptides in rat: Sprague Dawley rats were dosed with study peptide at a dose of 1 mg/kg intravenously (i.v.) or 3 mg/kg subcutaneously (s.c.) as a solution in PBS (0.2 mg/ml and 0.6 mg/ml respectively). Blood samples were collected after: 0.083, 0.25, 0.5, 1, 2, 4, 8, 24, 48 and 72 h (i.v. route) and 0.25, 0.5, 1, 2, 4, 6, 8, 10, 24, 48 and 72 h (s.c route) post application. Plasma samples were analyzed after protein precipitation via liquid chromatography mass spectrometry (LC/MS). PK parameters and half-life were calculated using Phoenix 64 (WinNonlin 6.4)-Pharsight (Certara™) (non-compartment model). Values below the limit of quantification (BLQ) were replaced by zero for subsequent calculations and PK analysis. T½: in-vivo half-life, time required for test compound plasma concentration to be divided by two during the PK experiment. C0: Extrapolated test compound plasma concentration at t=0 time point (i.v. route). Cmax: maximal test compound plasma concentration at the indicated time point (s.c. route). Tmax: Time point where Cmax was attained. F %: s.c. vs i.v. bioavailability, dose-corrected area under curve (AUC) s.c. route divided by AUC i.v.
# [5] = acetate buffer 50 mM pH 4.5, read-out: Solubility Acetate buffer pH 4.5
# [6] = phosphate buffer 50 mM pH 7.4, read-out: Solubility phosphate buffer pH 7.4
"solubility [1, 5] [mg/mL]","solubility [1, 6] [mg/mL]",Human Plasma stability % remaining [2] [%],"remaining at 1 h, 5 μM [2] [%]","remaining at 4 h, 5 μM [2] [%]",Rat blood stability % remaining [3],"remaining at 1 h, 5 μM [3] [%]","remaining at 4 h, 5 μM [3] [%]","C0 ([4]; iv, 1 mg/kg) [nM]","T½ (h), in-vivo half-life ([4]; iv, 1 mg/kg) [h]",bioavailability [4] [%],Cmax [4] [nM],Tmax [4] [h],"half-life ([4]; iv, 1 mg/kg) [h]",Compound
11.1,11.5,99,95,100,100* %,95,84,3200,7.8,83,2300,8,–,CCCCCCCCCCCCCCCC(=O)N[C@@H](CCC(=O)N[C@@H](CCC(=O)N[C@@H](CCC(=O)NCCCOCCOCCOCCCNC(=O)CCC(=O)NCCCOCCOCCOCCCNC(=O)CCC(=O)NCCCOCCOCCOCCCNC(=O)CCC(=O)NCCCC[C@H](NC(=O)CNC(=O)[C@H](CCC(=O)O)NC(=O)C(C)(C)NC(=O)C(C)(C)NC(=O)[C@@H](NC(=O)[C@H](CCCCNC(C)=O)NC(=O)[C@H](C)NC(=O)[C@H](CCCNC(=N)N)NC(=O)[C@@H](NC(=O)[C@H](CCCCN)NC(=O)[C@H](CCC(=O)O)NC(=O)[C@H](CCCNC(=N)N)NC(=O)CNC(=O)[C@H](CCC(=O)O)NC(=O)[C@H](CC(C)C)NC(C)=O)C(C)C)[C@@H](C)CC)C(=O)N[C@@H](CO)C(=O)N[C@H](C(=O)N[C@@H](Cc1ccccc1)C(=O)N[C@@H](CO)C(=O)N[C@@](C)(CCCCN)C(=O)N[C@@H](CCCNC(=N)N)C(=O)N[C@@H](C)C(=O)N[C@@H](CCCCNC(C)=O)C(N)=O)[C@@H](C)O)C(=O)O)C(=O)O)C(=O)O [compound 3] (Ac-LEGREKVRAK(Ac)I[Aib][Aib]EGK([Suc-X1])STFS[αMeK]RAK(Ac)-NH2)
9.63,7.71,100,100,100,100* %,102,86,2750,–,69,1990,8,8.71,CCCCCCCCCCCCCCCC(=O)N[C@@H](CCC(=O)N[C@@H](CCC(=O)N[C@@H](CCC(=O)NCCCOCCOCCOCCCNC(=O)CCC(=O)NCCCOCCOCCOCCCNC(=O)CCC(=O)NCCCC[C@H](NC(=O)CNC(=O)[C@H](CCC(=O)O)NC(=O)C(C)(C)NC(=O)C(C)(C)NC(=O)[C@@H](NC(=O)[C@H](CCCCNC(C)=O)NC(=O)[C@H](C)NC(=O)[C@H](CCCNC(=N)N)NC(=O)[C@@H](NC(=O)[C@H](CCCCN)NC(=O)[C@H](CCC(=O)O)NC(=O)[C@H](CCCNC(=N)N)NC(=O)CNC(=O)[C@H](CCC(=O)O)NC(=O)[C@H](CC(C)C)NC(C)=O)C(C)C)[C@@H](C)CC)C(=O)N[C@@H](CO)C(=O)N[C@H](C(=O)N[C@@H](Cc1c[nH]c2ccccc12)C(=O)N[C@@H](CO)C(=O)NC(C)(C)C(=O)N[C@@H](CCCNC(=N)N)C(=O)N[C@@H](CCCCN)C(=O)N[C@@H](CCCCNC(C)=O)C(N)=O)[C@@H](C)O)C(=O)O)C(=O)O)C(=O)O [compound 4] (Ac-LEGREKVRAK(Ac)I[Aib][Aib]EGK([Suc-X2])STWS[Aib]RKK(Ac)-NH2)
